Measured values from ChEMBL document CHEMBL1132471, “Vancomycin binding to low-affinity ligands: delineating a minimum set of interactions necessary for high-affinity binding” (J Med Chem, 1999).

Test: Affinity for Vancomycin (Exp I)

SMILES | Affinity [M⁻¹]
CC(=O)O[C@H](C)C(=O)O | 40
CC(=O)O | 15

Test: Affinity for Vancomycin (Exp II)

SMILES | Affinity [M⁻¹]
CC(=O)N[C@H](C)C(=O)O | 300
CC(=O)NCC(=O)O | 80
C[C@@H](O)C(=O)O | 80
CC(=O)O | 30
